A short description of test [1]: Cholesterol-lowering activity in hypercholesteremic rats. The format is in vivo, Sprague-Dawley male rats. As to conditions: 30 mg/kg oral, in 0.5% methylcellulose; plasma cholesterol prior to and 5 hrs after administration. The protocol:
Sprague-Dawley male rats were given a powdery feed containing 1% cholesterol and 0.5% cholic acid in an amount of 15 g per day per animal for 3 days to produce hypercholesteremic rats. Four days later, a compound suspended in 0.5% methylcellulose was administered orally at a dose of 30 mg/kg. Blood was drawn prior to and 5 hrs after the administration of the compound, for which the plasma cholesterol level was measured using a commercially available assay kit (Cholesterol E Test Wako, Wako Junyaku K.K.).

Test [2] concerns ACAT (liver microsome fractions of male rabbits). Briefly: ACAT inhibitory activity: formation of labelled cholesteryl esters from [1-14C]oleoyl-CoA and endogenous cholesterol. It counts as biochemical, rabbit. As to conditions: compound added at 10^-7 M. The protocol:
The enzyme preparation, ACAT was prepared from liver microsme fractions of male rabbits according to the method of E. E. Largis et al. (Journal of Lipid Research, Vol. 30, pages 681-690, 1989). The activity was calculated by assaying the amount of the labelled cholesteryl esters formed from [1-^14 C]oleoyl-CoA and endogenous cholesterol according to the method of Kazuichi NATORI et al. (Japan J. Pharmacol., Vol. 42, pages 517-523, 1986).
The result is shown in Table 1, in which percent inhibition of the formation of the labelled cholesteryl esters with a compound added at 10^-7 M is indicated as index for the ACAT inhibitory activity.

The subject of another test is Human LDL. Briefly: Antioxidative activity: inhibition of MDA formation from LDL incubated with cupric sulfate. The format is biochemical. Conditions: compound 10^-5 M; cupric sulfate 5×10^-6 M; 5 hrs; compared with control. The protocol:
Human LDL was incubated in the presence of cupric sulfate (5×10^-6 M) and in the presence or absence of a compound (10^-5 M) for 5 hrs. After the incubation, the peroxidation of low-density lipoproteins (LDL) is evaluated by the formation of malondialdehyde (MDA), which is a sort of lipid peroxides according to the method of Simon J. T. Mao et al. (J. Med. Chem., Vol. 34, pages 298-302, 1991). Activity of the compound is shown by percent inhibition of the MDA formation as compared with control.

SMILES strings stand for the structures.

The record followed here is patent US5621010A, “Urea derivatives and their use as ACAT inhibitors” (Nisshin Flour Milling Co., Ltd., priority 1993, dated 1997).

On to `CCCCCCCN(C)C(=O)Nc1ccccc1/C=C/c1cc(C(C)(C)C)c(O)c(C(C)(C)C)c1` [Example 105, N-[2-(3,5-di-tert-butyl-4-hydroxystyryl)phenyl]-N'-methyl-N'-heptylurea], for which the “Percent Reduction of Cholesterol” value in test [1] came to 45.9%.
Consider `CC(C)(C)c1cc(CCc2ccccc2NC(=O)N2CCCC3CCCCC32)cc(C(C)(C)C)c1O` (stereo not drawn) [Example 130, 1-[N-[2-(3,5-di-tert-butyl-4-hydroxyphenethyl)phenyl]carbamoyl]decahydroquinoline], for which the “ACAT Inhibition” value in test [2] was found to be 99%. The “Antioxidant Activity (percent inhibition of the MDA formation)” value in the test on Human LDL is recorded as 95%. The “Percent Reduction of Cholesterol” value in test [1] is listed as 71.5%.
Turning to `CC(C)(C)c1cc(CCc2ccccc2NC(=O)NCC(C)(C)c2ccc(Cl)c(Cl)c2)cc(C(C)(C)C)c1O` [Example 77, N-[2-(3,5-di-tert-butyl-4-hydroxyphenethyl)phenyl]-N'-[2-(3,4-dichlorophenyl)-2-methylpropyl]urea], in test [2], the “ACAT Inhibition” value was 96%. In addition, the “Antioxidant Activity (percent inhibition of the MDA formation)” value in the test on Human LDL is recorded as 95%.
With `CCCCCCOc1ccc(NC(=O)Nc2ccccc2CCc2cc(C(C)(C)C)c(O)c(C(C)(C)C)c2)cc1` [Example 1, N-[2-(3,5-di-tert-butyl-4-hydroxyphenethyl)phenyl]-N'-(4-hexyloxyphenyl)urea], in test [2], the “ACAT Inhibition” value was determined as 83%. For the same compound, the “Antioxidant Activity (percent inhibition of the MDA formation)” value with Human LDL is 94%.
In the same order, the values of `CC(C)(C)c1cc(CCc2ccccc2NC(=O)NC(c2ccccc2)c2ccccc2)cc(C(C)(C)C)c1O` [Example 29, N-[2-(3,5-di-tert-butyl-4-hydroxyphenethyl)phenyl]-N'-diphenylmethylurea] are 99% and 95%.
For the compound `CC(C)(C)c1cc(CCc2ccccc2NC(=O)NC2CCCC2)cc(C(C)(C)C)c1O` [Example 16, N-[2-(3,5-di-tert-butyl-4-hydroxyphenethyl)phenyl]-N'-cyclopentylurea], the “ACAT Inhibition” value in test [2] was 93%. The “Antioxidant Activity (percent inhibition of the MDA formation)” value with Human LDL is recorded as 95%.
The matching figures for `CC(C)(C)c1cc(CCc2ccccc2NC(=O)NC(C)(C)c2ccc(Cl)c(Cl)c2)cc(C(C)(C)C)c1O` [Example 74, N-[2-(3,5-di-tert-butyl-4-hydroxyphenethyl)phenyl]-N'-[2-(3,4-dichlorophenyl)-2-propyl]urea]: 96% and 95%.
The matching figures for `CC(C)(C)c1cc(CCc2ccccc2NC(=O)NC(C2CCCCC2)C2CCCCC2)cc(C(C)(C)C)c1O` [Example 50, N-[2-(3,5-di-tert-butyl-4-hydroxyphenethyl)phenyl]-N'-(dicyclohexylmethyl)urea]: 88% and 90%.
For `CC(C)(C)c1cc(CCc2ccccc2NC(=O)NC2CCCCCCC2)cc(C(C)(C)C)c1O` [Example 18, N-[2-(3,5-di-tert-butyl-4-hydroxyphenethyl)phenyl]-N'-cyclooctylurea], in test [2], the “ACAT Inhibition” value amounted to 97%. The “Antioxidant Activity (percent inhibition of the MDA formation)” value in the test with Human LDL stood at 97%.
Turning to `CCSCCNC(=O)Nc1ccccc1CCc1cc(C(C)(C)C)c(O)c(C(C)(C)C)c1` [Example 38, N-[2-(3,5-di-tert-butyl-4-hydroxyphenethyl)phenyl]-N'-(2-ethylthioethyl)urea], the “ACAT Inhibition” value in test [2] worked out at 71%. In addition, the “Antioxidant Activity (percent inhibition of the MDA formation)” value in the test on Human LDL was 94%.
For `CCCCCCCN(C)C(=O)Nc1ccccc1CCc1cc(C(C)(C)C)c(O)c(C(C)(C)C)c1` [Example 41, N-[2-(3,5-di-tert-butyl-4-hydroxyphenethyl)phenyl]-N'-heptyl-N'-methylurea], the “ACAT Inhibition” value in test [2] stood at 97%. Also, in the test with Human LDL, the “Antioxidant Activity (percent inhibition of the MDA formation)” value stood at 99%.
Turning to `CN(C)c1ccc(CCNC(=O)Nc2ccccc2CCc2cc(C(C)(C)C)c(O)c(C(C)(C)C)c2)cc1` [Example 75, N-[2-(3,5-di-tert-butyl-4-hydroxyphenethyl)phenyl]-N'-(4-dimethylaminophenethyl)urea], in test [2], the “ACAT Inhibition” value stood at 88%. For the same compound, the “Antioxidant Activity (percent inhibition of the MDA formation)” value in the test with Human LDL was determined as 95%.
Regarding `CC(C)(C)c1cc(CCc2ccccc2NC(=O)NC2CCN(Cc3ccccc3)CC2)cc(C(C)(C)C)c1O` [Example 35, N-[2-(3,5-di-tert-butyl-4-hydroxyphenethyl)phenyl]-N'-(1-benzyl-4-piperidyl)urea], the “ACAT Inhibition” value in test [2] came out at 82%. The “Antioxidant Activity (percent inhibition of the MDA formation)” value in the test on Human LDL was found to be 94%. The “Percent Reduction of Cholesterol” value in test [1] is 48.4%.
As to `CCOCCCNC(=O)Nc1ccccc1CCc1cc(C(C)(C)C)c(O)c(C(C)(C)C)c1` [Example 15, N-[2-(3,5-di-tert-butyl-4-hydroxyphenethyl)phenyl]-N'-(3-ethoxypropyl)urea], the “ACAT Inhibition” value in test [2] turned out to be 76%. Besides, the “Antioxidant Activity (percent inhibition of the MDA formation)” value with Human LDL worked out at 99%.
Consider `CC(C)(C)c1cc(CCc2ccccc2NC(=O)NC2CCC(OCc3ccccc3)CC2)cc(C(C)(C)C)c1O` (stereo not drawn) [Example 57], for which the “ACAT Inhibition” value in test [2] was 89%. Besides, the “Antioxidant Activity (percent inhibition of the MDA formation)” value in the test on Human LDL is recorded as 95%.
As for `CC(C)(C)c1cc(CCc2ccccc2NC(=O)NCC2(c3ccc4c(c3)OCO4)CCCC2)cc(C(C)(C)C)c1O` [Example 76, N-[2-(3,5-di-tert-butyl-4-hydroxyphenethyl)phenyl]-N'-[[1-(3,4-methylenedioxyphenyl)cyclopentyl]methyl]urea], the “ACAT Inhibition” value in test [2] was 98%. Moreover, the “Antioxidant Activity (percent inhibition of the MDA formation)” value in the test on Human LDL was 96%.
As for `CC(C)(C)c1cc(CCc2ccccc2NC(=O)NCCc2ccccc2)cc(C(C)(C)C)c1O` [Example 5, N-[2-(3,5-di-tert-butyl-4-hydroxyphenethyl)phenyl]-N'-phenethylurea], in test [2], the “ACAT Inhibition” value is recorded as 89%. The “Antioxidant Activity (percent inhibition of the MDA formation)” value in the test with Human LDL is recorded as 100%.
The matching figures for `CC(C)(C)c1cc(CCc2ccccc2NC(=O)NCc2ccco2)cc(C(C)(C)C)c1O` [Example 30, N-[2-(3,5-di-tert-butyl-4-hydroxyphenethyl)phenyl]-N'-[(2-furyl)methyl]urea]: 84% and 92%.
The matching figures for `CN(Cc1c2ccccc2cc2ccccc12)C(=O)Nc1ccccc1CCc1cc(C(C)(C)C)c(O)c(C(C)(C)C)c1` [Example 44, N-[2-(3,5-di-tert-butyl-4-hydroxyphenethyl)phenyl]-N'-(9-anthryl)methyl-N'-methylurea]: 90% and 94%.
Turning to `CC(C)(C)c1cc(CCc2ccccc2NC(=O)NC2CCN(Cc3ccc(C(F)(F)F)cc3C(F)(F)F)CC2)cc(C(C)(C)C)c1O` [Example 85, N-[2-(3,5-di-tert-butyl-4-hydroxyphenethyl)phenyl]-N'-[1[-2,4-bis(trifluoromethyl)benzyl]-4-piperidyl]urea], in test [2], the “ACAT Inhibition” value is reported as 97%. For the same compound, the “Antioxidant Activity (percent inhibition of the MDA formation)” value in the test on Human LDL was found to be 94%.
The matching figures for `CC(C)(C)c1cc(CCc2ccccc2NC(=O)N2CCc3ccccc3C2)cc(C(C)(C)C)c1O` [Example 117, 2-[N-[2-(3,5-di-tert-butyl-4-hydroxyphenethyl)phenyl]carbamoyl]-1,2,3,4-tetrahydroisoquinoline]: 91% and 97%.
As to `CN(C(=O)Nc1ccccc1CCc1cc(C(C)(C)C)c(O)c(C(C)(C)C)c1)C1CCCCC1` [Example 43, N-[2-(3,5-di-tert-butyl-4-hydroxyphenethyl)phenyl]-N'-cyclohexyl-N'-methylurea], the “ACAT Inhibition” value in test [2] came to 99%. Besides, the “Antioxidant Activity (percent inhibition of the MDA formation)” value with Human LDL came to 99%.
Consider `CCCCCCCN(Cc1ccccc1)C(=O)Nc1ccccc1CCc1cc(C(C)(C)C)c(O)c(C(C)(C)C)c1` [Example 40, N-[2-(3,5-di-tert-butyl-4-hydroxyphenethyl)phenyl]-N'-benzyl-N'-heptylurea], for which the “ACAT Inhibition” value in test [2] is on record as 96%. Moreover, in the test on Human LDL, the “Antioxidant Activity (percent inhibition of the MDA formation)” value came out at 98%.
In the same order, the values of `CN(C(=O)Nc1ccccc1CCc1cc(C(C)(C)C)c(O)c(C(C)(C)C)c1)C1CCCN(Cc2ccccc2)C1` (stereo not drawn) [Example 99, N-[2-(3,5-di-tert-butyl-4-hydroxyphenethyl)phenyl]-N'-(1-benzyl-3-piperidyl)-N'-methylurea] are 100% and 95%.
In the same order, the values of `CC(C)(C)c1cc(CCc2ccccc2NC(=O)N2CCC(Cc3ccccc3)CC2)cc(C(C)(C)C)c1O` [Example 115, 4-Benzyl-1-[N-[2-(3,5-di-tert-butyl-4-hydroxyphenethyl)phenyl]carbamoyl]piperidine] are 87% and 98%.
